± gives the uncertainty stated by the source.
Experiment: xn = mol fraction of the nth substance listed

CC(C)Br + CCO
viscosity [mPa·s], 101 kPa
Conditions	x1 = 0.1	x1 = 0.2	x1 = 0.3	x1 = 0.4	x1 = 0.5	x1 = 0.6	x1 = 0.7	x1 = 0.8	x1 = 0.9
298.15 K	0.9584 ± 0.048	0.8399 ± 0.043	0.7419 ± 0.038	0.6681 ± 0.035	0.601 ± 0.032	0.546 ± 0.03	0.505 ± 0.028	0.4811 ± 0.028	0.4782 ± 0.027
303.15 K	0.8856 ± 0.045	0.7784 ± 0.04	0.6899 ± 0.036	0.6233 ± 0.033	0.5616 ± 0.03	0.5172 ± 0.029	0.4819 ± 0.028	0.4653 ± 0.027	0.4647 ± 0.027
308.15 K	0.8081 ± 0.041	0.711 ± 0.037	0.6407 ± 0.034	0.5773 ± 0.031	0.5251 ± 0.029	0.4875 ± 0.028	0.4624 ± 0.027	0.4474 ± 0.026	0.4513 ± 0.026
313.15 K	0.7913 ± 0.041	0.7008 ± 0.036	0.6327 ± 0.034	0.5668 ± 0.031	0.5161 ± 0.029	0.4739 ± 0.027	0.4489 ± 0.026	0.4352 ± 0.026	0.4285 ± 0.026
318.15 K	0.7206 ± 0.037	0.644 ± 0.034	0.5803 ± 0.031	0.5262 ± 0.029	0.4829 ± 0.028	0.4499 ± 0.026	0.4268 ± 0.025	0.4152 ± 0.025	0.4137 ± 0.025

CC(O)CO (centres undefined) + CCCO
313 K, 101 kPa
Conditions	viscosity [mPa·s]
x1 = 0.1	1.9 ± 0.1
x1 = 0.3	2.9 ± 0.1
x1 = 0.5	4.8 ± 0.1
x1 = 0.7	8.3 ± 0.2
x1 = 0.9	15 ± 0.4

ClC=C(Cl)Cl + CCC(C)=O
viscosity [mPa·s], 101.33 kPa
Conditions	x1 = 0.1037	x1 = 0.1997	x1 = 0.3082	x1 = 0.3915	x1 = 0.4564	x1 = 0.5979	x1 = 0.7166	x1 = 0.7989	x1 = 0.891
298.15 K	–	0.507 ± 0.005	–	–	0.557 ± 0.006	0.592 ± 0.007	0.612 ± 0.007	0.622 ± 0.008	0.63 ± 0.008
308.15 K	0.447 ± 0.005	0.467 ± 0.005	0.491 ± 0.005	0.506 ± 0.005	0.518 ± 0.006	0.543 ± 0.006	0.559 ± 0.007	0.564 ± 0.007	0.575 ± 0.007
318.15 K	0.413 ± 0.004	0.434 ± 0.005	0.456 ± 0.005	0.471 ± 0.005	0.481 ± 0.005	0.504 ± 0.006	0.521 ± 0.006	0.531 ± 0.006	0.541 ± 0.007

ClC=C(Cl)Cl + CCCCO
viscosity [mPa·s], 101 kPa
Conditions	x2 = 0.0983	x2 = 0.2464	x2 = 0.3954	x2 = 0.5452	x2 = 0.696	x2 = 0.8476
303.15 K	0.669 ± 0.0089	0.98 ± 0.013	1.24 ± 0.017	1.492 ± 0.02	1.747 ± 0.023	2 ± 0.027
313.15 K	0.601 ± 0.008	0.814 ± 0.011	1.03 ± 0.014	1.218 ± 0.016	1.408 ± 0.019	1.599 ± 0.021
323.15 K	0.52 ± 0.0069	0.698 ± 0.0093	0.835 ± 0.011	0.973 ± 0.013	1.111 ± 0.015	1.252 ± 0.017

C1COCCN1 + O
293.15 K, 101 kPa
Conditions	viscosity [mPa·s]
x1 = 0.01898	1.327 ± 0.011
x1 = 0.04739	1.963 ± 0.017
x1 = 0.08285	3.082 ± 0.03
x1 = 0.1083	4.064 ± 0.042
x1 = 0.1739	7.227 ± 0.085
x1 = 0.2362	10.22 ± 0.13
x1 = 0.2817	11.61 ± 0.16
x1 = 0.3018	11.87 ± 0.16
x1 = 0.3247	12.17 ± 0.17
x1 = 0.3476	12.13 ± 0.17
x1 = 0.3543	12.09 ± 0.17
x1 = 0.4548	10.43 ± 0.15
x1 = 0.68	5.954 ± 0.081

NC1CCCCC1 + Cc1ccccc1
303.15 K, 101 kPa
Conditions	viscosity [mPa·s]
x2 = 0.1242	1.381 ± 0.012
x2 = 0.2292	1.177 ± 0.0099
x2 = 0.3268	1.013 ± 0.0085
x2 = 0.4121	0.8791 ± 0.0075
x2 = 0.5347	0.7115 ± 0.0061
x2 = 0.6445	0.6079 ± 0.0053
x2 = 0.7365	0.5443 ± 0.0047
x2 = 0.8431	0.4838 ± 0.0043
x2 = 0.922	0.4617 ± 0.0041

Source: the CheMixHub viscosity set
